Test results as given in patent US8168672B2, “Thioamide derivatives as progesterone receptor modulators” (Wyeth, priority 2004, dated 2012).
“And” between values parts separate entries of the source, which are not always exact repeats. Equal values may be shown once.

How the values were obtained:
[1] = test system: alkaline phosphatase activity in T47D cells; assay: T47D alkaline phosphatase assay (antiprogestin/antagonist mode, in the presence of 1 nM progesterone); format: cell-based; settings: Homo sapiens, reference antiprogestin, three independent experiments (Exp 1-3), read-out: Estimated IC50
Procedure: 0.1 M Tris-HCl, pH 9.8 containing 4 mM p-nitrophenyl phosphate (Sigma). […] To each well in a 96-well plate (Falcon, Becton Dickinson Labware), 180 μL of diluted cell suspension was added. Twenty μL of reference or test compounds diluted in the culture medium was then added to each well. When testing for progestin antagonist activity, reference antiprogestins or test compounds were added in the presence of 1 nM progesterone. The cells were incubated at 37° C. in a 5% CO2/humidified atmosphere for 24 hours. […] The plates were shaken in a titer plate shaker for 15 minutes. Then 150 μL of assay buffer II was added to each well. […] Square root-transformed data are used for analysis of variance and nonlinear dose response curve fitting for both agonist and antagonist modes. Huber weighting is used to downweight the effects of outliers. EC50 or IC50 values are calculated from the retransformed values.

[2] = Solubility in dimethylsulfoxide (observation during characterisation); format: physicochemical
Procedure: A 5-L round-bottomed flask equipped with a mechanical stirrer and a reflux condenser was charged with the isolated solid (16.5 g) and acetone (2700 mL) was added in portions via the condenser while the suspension was heated to reflux. The reflux condenser was replaced with a regular one and acetone was distilled off. After distilling 2130 mL of acetone, the formed slurry was cooled to room temperature, stirred overnight, and filtered on a sintered-glass funnel to give a dark-yellow, crystalline, sandy solid. The filtered solid was dried at 40° C. in vacuo to give 12.5 g (76% recrystallization yield; 38% total yield) of 5-(4,4-dimethyl-2-thioxo-1,4-dihydro-2H-3,1-benzoxazin-6-yl)-1-methyl-1H-pyrrole-2-carbothioamide. LC purity: 95.94%; 1.65% NSP-989; rrt 0.88. LC-MS: 331 (M^+); impurity 297 (NSP-989). Mp: particles of various shapes; small particles melted 210-215° C.; next 218-220° C.; final melt 223-226° C. IR (KBr, cm^−1): 3375, 3269, 3165, 2211, 1624, 1610, 1540, 1526, 1466, 1370, 1294, 1261, 1186, 1114, 1086, 959, 880, 822, 779. ^1H NMR (DMSO-d6, ppm): 12.28 (s, 1H), 9.22 (s, 1H, S═CNH2), 8.97 (s, 1H, S═CNH2), 7.41 (d, 1H, J=7.05 Hz), 7.40 (s, 1H), 7.12 (d, 1H, J=8.85 Hz), 6.72 (d, 1H, J=3.9 Hz), 6.23 (d, 1H, J=3.9 Hz), 3.83 (s, 3H), 1.68 (s, 6H).

[3] = test system: alkaline phosphatase activity in T47D cells; assay: T47D cytosol alkaline phosphatase assay (progestin/agonist mode); format: cell-based; settings: Homo sapiens, 24 hours treatment; for Emax: agonist mode, read-out: % Efficacy; for EC50: T47D, 24 h, test compounds
Procedure: 5-(4,4-dimethyl-2-thioxo-1,4-dihydro-2H-3,1-benzoxazin-6-yl)-1-methyl-1H-pyrrole-2-carbothioamide (1) and 5-(4,4-dimethyl-2-oxo-1,4-dihydro-2H-3,1-benzoxazin-6-yl)-1-methyl-1H-pyrrole-2-carbothioamide (2) were tested in a T47D cytosol alkaline phosphatase assay (Table 1). The purpose of this functional assay was to identify progestins or antiprogestins by determining the compound's effect on alkaline phosphatase activity in T47D cells.
(i) Culture Medium: • DMEM:F12 (1:1) (GIBCO, BRL) supplemented with 5% (v/v) charcoal stripped fetal bovine serum (not heat-inactivated), 100 U/mL penicillin, 100 μg/mL streptomycin, and 2 mM the GlutaMax™ reagent (GIBCO, BRL).
(ii) Alkaline Phosphatase Assay Buffer: • I. 0.1 M Tris-HCl, pH 9.8, containing 0.2% the Triton™ reagent X-100 • II. 0.1 M Tris-HCl, pH 9.8 containing 4 mM p-nitrophenyl phosphate (Sigma).
(iii) Cell Culture and Treatment: • Frozen T47D cells were thawed in a 37° C. water bath and diluted to 280,000 cells/mL in culture medium. To each well in a 96-well plate (Falcon, Becton Dickinson Labware), 180 μL of diluted cell suspension was added. Twenty μL of reference or test compounds diluted in the culture medium was then added to each well. When testing for progestin antagonist activity, reference antiprogestins or test compounds were added in the presence of 1 nM progesterone. The cells were incubated at 37° C. in a 5% CO2/humidified atmosphere for 24 hours.
(iv) Alkaline Phosphatase Enzyme Assay: • At the end of treatment, the medium was removed from the plate and 50 μL of assay buffer I was added to each well. The plates were shaken in a titer plate shaker for 15 minutes. Then 150 μL of assay buffer II was added to each well. Optical density measurements were taken at 5 minute intervals for 30 minutes at a test wavelength of 405 nm.
(v) Analysis of Results: • Analysis of dose-response data: For reference and test compounds, a dose response curve is generated for dose (X-axis) vs. the rate of enzyme reaction (slope) (Y-axis). Square root-transformed data are used for analysis of variance and nonlinear dose response curve fitting for both agonist and antagonist modes. Huber weighting is used to downweight the effects of outliers. EC50 or IC50 values are calculated from the retransformed values. JMP software (SAS Institute, Inc.) is used for both one-way analysis of variance and non-linear dose response analyses in both single dose and dose response studies.
(vi) Reference Compounds: • Progesterone and trimegestone are reference progestins and RU486 was the reference antiprogestin. All reference compounds are run in full dose response curves and the EC50 or IC50 values calculated.

Row | IC50 [1] | Solubility in dimethylsulfoxide (DMSO) [2] | EC50 [3] [nM] | SMILES | Emax [3] [%]
1 | 0.103 nM and 0.12 nM |  |  | CC#C[C@]1(O)CC[C@H]2[C@@H]3CCC4=CC(=O)CCC4=C3[C@@H](c3ccc(N(C)C)cc3)C[C@@]21C [RU486] | 
2 |  | sparingly soluble | 0.2 | Cn1c(C(N)=S)ccc1-c1ccc2c(c1)C(C)(C)OC(=S)N2 [Compound 1, 5-(4,4-dimethyl-2-thioxo-1,4-dihydro-2H-3,1-benzoxazin-6-yl)-1-methyl-1H-pyrrole-2-carbothioamide] | 60
3 |  |  | 1.9 | Cn1c(C(N)=S)ccc1-c1ccc2c(c1)C(C)(C)OC(=O)N2 [Compound 2, 5-(4,4-dimethyl-2-oxo-1,4-dihydro-2H-3,1-benzoxazin-6-yl)-1-methyl-1H-pyrrole-2-carbothioamide] | 72
